Patent publication US20240383869A1, “ARYLACETYL INHIBITORS OF TG2 AND USES THEREOF” (UNIVERSITY OF OTTAWA, priority 2021, published 2024)

How the values were obtained:
TG3a = biological target: T1, TG3a (Homo sapiens, UniProt Q08188); assay: Fluorescence isopeptidase activity assay (A101 FRET-quenched probe), isozyme selectivity; format: biochemical; conditions: normalized [I]/α
T1 construct: purchased Zedira
T1 sequence (Q08188 2-467 limits assumed): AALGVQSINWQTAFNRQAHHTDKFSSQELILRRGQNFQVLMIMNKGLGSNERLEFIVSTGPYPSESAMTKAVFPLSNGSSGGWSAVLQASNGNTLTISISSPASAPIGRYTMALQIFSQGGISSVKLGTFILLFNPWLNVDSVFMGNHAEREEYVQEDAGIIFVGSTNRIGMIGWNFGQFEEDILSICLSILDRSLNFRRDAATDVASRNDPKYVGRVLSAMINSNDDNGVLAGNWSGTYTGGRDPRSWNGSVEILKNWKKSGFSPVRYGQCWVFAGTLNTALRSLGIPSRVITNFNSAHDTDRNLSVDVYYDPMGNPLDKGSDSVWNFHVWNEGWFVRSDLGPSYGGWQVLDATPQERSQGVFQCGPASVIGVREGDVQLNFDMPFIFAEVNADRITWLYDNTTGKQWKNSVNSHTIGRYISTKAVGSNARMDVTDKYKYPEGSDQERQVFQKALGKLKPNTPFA
T1 sequence (Q08188 468-693 partner limits assumed): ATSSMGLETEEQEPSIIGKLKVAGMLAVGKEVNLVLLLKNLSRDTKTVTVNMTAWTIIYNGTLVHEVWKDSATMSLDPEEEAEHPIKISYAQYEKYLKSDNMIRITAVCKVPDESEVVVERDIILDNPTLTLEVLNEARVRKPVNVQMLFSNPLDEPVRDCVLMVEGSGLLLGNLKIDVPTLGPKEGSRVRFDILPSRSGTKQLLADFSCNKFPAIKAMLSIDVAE
Method: Fluorescence isopeptidase activity assay. The isopeptidase activity of pre-activated TG3a and FXIIIa (purchased from Zedira) was measured via a fluorescence-based assay as described (Kirily, R. et al., “Isopeptidase activity of human transglutaminase 2: disconnection from transamidation and characterization by kinetic parameters.” Amino Acids 2016, 48 (1), 31-40) using the commercially available peptidic FRET quenched probe A101. Briefly, the final concentration in the reaction mixture contained 50 mM Tris (pH 7.0), 10 mM CaCl2, 100 mM NaCl, 2.8 mM TCEP, 50 μM A101 and 14 mM H-Gly-OMe. The reaction was monitored at 25° C. using a BioTek Synergy 4 plate reader (Ex/Em: 318/413 nm). Enzymatic inhibition assays were run under Kitz and Wilson conditions (Kitz, R. and Wilson, I. B., “Esters of methanesulfonic acid as irreversible inhibitors of acetylcholinesterase.” J. Biol. Chem. 1962, 237, 3245-49), which were established for TG3a and FXIIIa at a substrate (A101) concentration of 50 μM using enzyme concentrations of 0.17 μM and 0.11 μM for TG3a and FXIIIa, respectively.

Plasma stability = format: in vitro ADME
[1] = Metabolic stability in human hepatocyte model; format: in vitro ADME; conditions: hepatocytes; for hepatocyte CLint: calculated intrinsic clearance; for half-life: read-out: Hepatocyte t½
Method: The metabolic stabilities of inhibitors 72 and 74 were also evaluated in a human hepatocyte model. The half-lives and calculated intrinsic clearance shown in Table 6 are indicative of moderate stability.

Protein binding = format: in vitro ADME
[2] = PAMPA passive diffusion across a lipid membrane; format: in vitro ADME
Method: Passive diffusion across a lipid membrane was measured by PAMPA for both inhibitors 72 and 74. The values shown in Table 6 indicate both compounds were at least moderately permeant.

MDCK − MDR1 = assay: MDCK-MDR1 permeability; format: in vitro ADME; conditions: for MDCK − MDR1 Papp (A→B): apical to basolateral; for MDCK − MDR1 Papp (B→A): basolateral to apical
SCC-13 cells = assay: ECS cell invasion through Matrigel (Transwell); format: cell-based; conditions: 0-100 μM inhibitor, 18 h, read-out: EC50 for inhibition of ECS invasion
Method: One well-known property of tumour-initiating cells associated with cancer metastasis is the enhanced ability to invade Matrigel (collagen). For example, it has been shown that epidermal cancer stem (ECS) cells invade Matrigel more efficiently than non-stem cancer cells, and that these properties are associated with enhanced tumour formation (Adhikary, G. et al., PLoS ONE 2013, 8, e84324. https://doi.org/10.1371/journal.pone.0084324). We have shown previously that ˜20 μM of NC9 and 3.9 μM of VA4 can reduce ECS cell invasion through Matrigel by ˜50% relative to vehicle-treated cells (Akbar, A. et al., J. Med. Chem. 2017, 60, 7910-7927. https://doi.org/10.1021/acs.jmedchem.7b01070; Fisher, M. L. et al., Oncotarget 2015, 6, 20525-20539. https://doi.org/10.18632/oncotarget.3890).
Materials and Methods for cell invasion data. To measure cell invasion, Matrigel (Corning, catalogue no. 354234) was diluted to 250 μg/mL and 120 μL was added to the upper chambers of a Transwell plate (Corning, no. 353097, 1-cm diameter, 8-μm pore size) and allowed to solidify. SCC-13 cells were suspended in spheroid medium (Fisher, M. L. et al., Cancer Res. 2016, 76, 7265-7275. https://doi.org/10.1158/0008-5472.can-16-2032; Adhikary, G. et al., Carcinogenesis 2015, 36, 800-810. https://doi.org/10.1093/carcin/bgv064) containing 1% foetal calf serum (FCS), and 20,000 cells were plated into each upper chamber atop the Matrigel. The bottom chamber contained spheroid medium supplemented with 10% FCS and 0-100 μM of inhibitor. After incubation for 18 h in a 37° C. incubator, cells in the top chamber were removed with a swab and cells on the lower surface of the membrane were fixed with 4% paraformaldehyde and the nuclei were stained with 4′,6-diamidino-2-phenylindole. Cell number was counted in multiple fields (n=4) using a fluorescence microscope, normalized with respect to the number counted in the presence of vehicle only, and expressed as mean±standard deviation.

Compound	inhibition of TG3a (TG3a)	Plasma t½ (Plasma stability) [h]	hepatocyte CLint [1] [µL/min/1e6 cells]	half-life [1] [h]	Protein Binding (Protein binding) [%]	Protein Binding Recovery (Protein binding) [%]	PAMPA −Log [Pe (cm/s)] [2]	MDCK − MDR1 Efflux Ratio (MDCK − MDR1)	MDCK − MDR1 Papp (A→B) (MDCK − MDR1)	MDCK − MDR1 Papp (B→A) (MDCK − MDR1)	EC50 (SCC-13 cells) [µM]
C=CC(=O)NCCCC[C@H](NC(=O)Cc1ccccc1C)C(=O)N1CCN(C(=O)c2cccc3ccccc23)CC1 [Inhibitor 74, (S)-N-(6-(4-(1-naphthoyl)piperazin-1-yl)-5-(2-(2-methylphenyl)acetamido)-6-oxohexyl)acrylamide]	none of these inhibitors showed any detectable inhibition	9.47	5.58	4.18	85	93	5.03	51.6	0.32 10^−6 cm/s	16.5 10^−6 cm/s	119 ± 5
C=CC(=O)NCCCC[C@H](NC(=O)OCc1ccccc1)C(=O)N1CCN(C(=O)c2cccc3ccccc23)CC1 [AA9, reference compound]	none of these inhibitors showed any detectable inhibition										
C=CC(=O)NCCCC[C@H](NC(=O)Cc1ccccc1F)C(=O)N1CCN(C(=O)c2cccc3ccccc23)CC1 [Inhibitor 72, (S)-N-(6-(4-(1-naphthoyl)piperazin-1-yl)-5-(2-(2-fluorophenyl)acetamido)-6-oxohexyl)acrylamide]	none of these inhibitors showed any detectable inhibition	17.92	2.37	9.73	84	86	5.44		0.29 10^−6 cm/s	18.2 10^−6 cm/s	77
